Test results from patent US20230072860A1, “ISOXAZOLINE OXIME FORMATE COMPOUND, PREPARATION METHOD THEREFOR, HERBICIDAL COMPOSITION AND USE THEREOF” (QINGDAO KINGAGROOT CHEMICAL COMPOUND CO., LTD., priority 2020, published 2023).

How the values were obtained:
Assay in all cases: Experiment on weeding effect in post-emergence stage
Format in all cases: in vivo
Conditions in all cases: dose 15 g a.i./ha, fresh weight control rate level
Abutilon theophrasti = system: Abutilon theophrasti
Text: (§1) Experiment on weeding effect in post-emergence stage:
(§2) Monocotyledonous and dicotyledonous weed seeds (Descurainia sophia, Capsella bursa-pastoris, Abutilon theophrasti, Galium aparine, Stellaria media, Lithospermum arvense, Rorippa indica, Alopecurus aequalis, Alopecurus japonicus, Beckmannia syzigachne, Sclerochloa dura, Conyza Canadensis, Phleum paniculatum, Veronica didyma Tenore, Eleusine indica, Bromus japonicus, Aegilops tauschii, Phalaris arundinacea, Amaranthus retroflexus, Chenopodium album, Commelina communis, Sonchus arvensis, Convolvulus arvensis, Cirsium setosum, Solanum nigrum, Acalypha australis, Digitaria sanguinalis, Echinochloa crusgalli, Setaria viridis, Setaria glauca, Leptochloa chinensis, Monochoria vaginalis, Sagittaria trolia, Scirpus juncoides, Cyperus rotundus, Cyperus iria, Cyperus difformis, Elmbristylis, Portulaca oleracea, Xanthium sibiricum, Pharbitis nil) and major crop seeds (wheat, corn, rice, soybean, cotton, oilseed rape, millet, sorghum, potato, sesame, ricinus) were placed in plastic pots filled with soil, then covered with 0.5-2 cm of soil, allowed to grow in a good greenhouse environment. After 2 weeks of sowing, the test plants were treated in the 2-3 leaf stage. The tested compounds of the present invention were respectively dissolved in acetone, then added with Tween 80 and 1.5 liter/ha of emulsifiable concentrate of methyl oleate as synergist, diluted with a certain amount of water to obtain a solution with a certain concentration, and sprayed with a spray tower onto the plants. After the application, the plants were cultured for 3 weeks in the greenhouse, and then the experimental results of the weeding were counted. The doses of the used compounds were 500, 250, 125, 60, 15 g a.i./ha, and the averages were obtained by repeating for three times.

Amaranthus retroflexus = system: Amaranthus retroflexus
Text: as §1, §2

Digitaria sanguinalis = system: Digitaria sanguinalis
Text: as §1, §2

Echinochloa crusgalli = system: Echinochloa crusgalli
Text: as §1, §2

Eleusine indica = system: Eleusine indica
Text: as §1, §2

Galium aparine = system: Galium aparine
Text: as §1, §2

Leptochloa chinensis = system: Leptochloa chinensis
Text: as §1, §2

Setaria viridis = system: Setaria viridis
Text: as §1, §2

Veronica didyma Tenore = system: Veronica didyma Tenore
Text: as §1, §2

SMILES	weeding effect in post-emergence stage, Abutilon theophrasti (level) (Abutilon theophrasti)	weeding effect in post-emergence stage, Amaranthus retroflexus (level) (Amaranthus retroflexus)	weeding effect in post-emergence stage, Digitaria sanguinalis (level) (Digitaria sanguinalis)	weeding effect in post-emergence stage, Echinochloa crusgalli (level) (Echinochloa crusgalli)	weeding effect in post-emergence stage, Eleusine indica (level) (Eleusine indica)	weeding effect in post-emergence stage, Galium aparine (level) (Galium aparine)	weeding effect in post-emergence stage, Leptochloa chinensis (level) (Leptochloa chinensis)	weeding effect in post-emergence stage, Setaria viridis (level) (Setaria viridis)	weeding effect in post-emergence stage, Veronica didyma Tenore (level) (Veronica didyma Tenore)
CC=NOC(=O)C1(C)CC(c2cc(-n3c(=O)n(C)c(=S)n(C)c3=O)c(F)cc2Cl)=NO1 (mixture of isomers) [Compound 2]	5 (Level 5: growth control rate is above 85%)	5 (Level 5: growth control rate is above 85%)	5 (Level 5: growth control rate is above 85%)	5 (Level 5: growth control rate is above 85%)	5 (Level 5: growth control rate is above 85%)	5 (Level 5: growth control rate is above 85%)	5 (Level 5: growth control rate is above 85%)	5 (Level 5: growth control rate is above 85%)	5 (Level 5: growth control rate is above 85%)
CCC(C)=NOC(=O)C1(C)CC(c2cc(-n3c(=O)n(C)c(=S)n(C)c3=O)c(F)cc2Cl)=NO1 (mixture of isomers) [Compound 79]	5 (Level 5: growth control rate is above 85%)	5 (Level 5: growth control rate is above 85%)	5 (Level 5: growth control rate is above 85%)	5 (Level 5: growth control rate is above 85%)	5 (Level 5: growth control rate is above 85%)	5 (Level 5: growth control rate is above 85%)	5 (Level 5: growth control rate is above 85%)	5 (Level 5: growth control rate is above 85%)	5 (Level 5: growth control rate is above 85%)
CC(=NOC(=O)C1(C)CC(c2cc(-n3c(=O)n(C)c(=S)n(C)c3=O)c(F)cc2Cl)=NO1)C(C)C (mixture of isomers) [Compound 80]	5 (Level 5: growth control rate is above 85%)	5 (Level 5: growth control rate is above 85%)	5 (Level 5: growth control rate is above 85%)	5 (Level 5: growth control rate is above 85%)	5 (Level 5: growth control rate is above 85%)	5 (Level 5: growth control rate is above 85%)	5 (Level 5: growth control rate is above 85%)	5 (Level 5: growth control rate is above 85%)	5 (Level 5: growth control rate is above 85%)
CC(=NOC(=O)C1(C)CC(c2cc(-n3c(=O)n(C)c(=S)n(C)c3=O)c(F)cc2Cl)=NO1)C(C)(C)C (mixture of isomers) [Compound 81]	5 (Level 5: growth control rate is above 85%)	5 (Level 5: growth control rate is above 85%)	5 (Level 5: growth control rate is above 85%)	5 (Level 5: growth control rate is above 85%)	5 (Level 5: growth control rate is above 85%)	5 (Level 5: growth control rate is above 85%)	5 (Level 5: growth control rate is above 85%)	5 (Level 5: growth control rate is above 85%)	5 (Level 5: growth control rate is above 85%)
CC(=NOC(=O)C1(C)CC(c2cc(-n3c(=O)n(C)c(=S)n(C)c3=O)c(F)cc2Cl)=NO1)C1CC1 (mixture of isomers) [Compound 84]	5 (Level 5: growth control rate is above 85%)	5 (Level 5: growth control rate is above 85%)	5 (Level 5: growth control rate is above 85%)	5 (Level 5: growth control rate is above 85%)	5 (Level 5: growth control rate is above 85%)	5 (Level 5: growth control rate is above 85%)	5 (Level 5: growth control rate is above 85%)	5 (Level 5: growth control rate is above 85%)	5 (Level 5: growth control rate is above 85%)
Cn1c(=S)n(C)c(=O)n(-c2cc(C3=NOC(C)(C(=O)ON=Cc4ccccc4)C3)c(Cl)cc2F)c1=O (mixture of isomers) [Compound 90]	5 (Level 5: growth control rate is above 85%)	5 (Level 5: growth control rate is above 85%)	5 (Level 5: growth control rate is above 85%)	5 (Level 5: growth control rate is above 85%)	5 (Level 5: growth control rate is above 85%)	5 (Level 5: growth control rate is above 85%)	5 (Level 5: growth control rate is above 85%)	5 (Level 5: growth control rate is above 85%)	5 (Level 5: growth control rate is above 85%)
Cc1ccc(C=NOC(=O)C2(C)CC(c3cc(-n4c(=O)n(C)c(=S)n(C)c4=O)c(F)cc3Cl)=NO2)o1 (mixture of isomers) [Compound 117]	5 (Level 5: growth control rate is above 85%)	5 (Level 5: growth control rate is above 85%)	5 (Level 5: growth control rate is above 85%)	5 (Level 5: growth control rate is above 85%)	5 (Level 5: growth control rate is above 85%)	5 (Level 5: growth control rate is above 85%)	5 (Level 5: growth control rate is above 85%)	5 (Level 5: growth control rate is above 85%)	5 (Level 5: growth control rate is above 85%)
Cc1ccc(C=NOC(=O)C2(C)CC(c3cc(-n4c(=O)n(C)c(=S)n(C)c4=O)c(F)cc3Cl)=NO2)s1 (mixture of isomers) [Compound 118]	5 (Level 5: growth control rate is above 85%)	5 (Level 5: growth control rate is above 85%)	5 (Level 5: growth control rate is above 85%)	5 (Level 5: growth control rate is above 85%)	5 (Level 5: growth control rate is above 85%)	5 (Level 5: growth control rate is above 85%)	5 (Level 5: growth control rate is above 85%)	5 (Level 5: growth control rate is above 85%)	5 (Level 5: growth control rate is above 85%)
CCOC(C)=NOC(=O)C1(C)CC(c2cc(-n3c(=O)n(C)c(=S)n(C)c3=O)c(F)cc2Cl)=NO1 (mixture of isomers) [Compound 120]	5 (Level 5: growth control rate is above 85%)	5 (Level 5: growth control rate is above 85%)	5 (Level 5: growth control rate is above 85%)	5 (Level 5: growth control rate is above 85%)	5 (Level 5: growth control rate is above 85%)	5 (Level 5: growth control rate is above 85%)	5 (Level 5: growth control rate is above 85%)	5 (Level 5: growth control rate is above 85%)	5 (Level 5: growth control rate is above 85%)
